# According to PubChem BioAssay (NCI):
#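 How tested: cells in 96-well plates exposed to compound for 48 hours at five concentrations. Abbreviation: GI50, concentration required for 50% inhibition of growth. Definition used: TGI = concentration required for complete inhibition of growth.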
# Columns and labels:
# Assay in all cases: NCI-60 cell line screen, 48 h
# [1] = test system: HS 578T breast
# [2] = test system: U251 CNS
# [3] = test system: OVCAR-5 ovarian
# [4] = test system: EKVX NSCLC
# [5] = test system: SF-295 CNS
# [6] = test system: DU-145 prostate
# [7] = test system: 786-0 renal
# [8] = test system: KM12 colon
# [9] = test system: SNB-75 CNS
# [10] = test system: OVCAR-4 ovarian
# [11] = test system: PC-3 prostate
# [12] = test system: UACC-257 melanoma
# [13] = test system: HOP-62 NSCLC
# [14] = test system: MDA-MB-231 breast
# [15] = test system: K-562 leukemia
# [16] = test system: RPMI-8226 leukemia
# [17] = test system: SF-539 CNS
# [18] = test system: BT-549 breast
# [19] = test system: NCI-H23 lung
# [20] = test system: HT29 colon
# [21] = test system: HL-60(TB) leukemia
# [22] = test system: HOP-92 NSCLC
# [23] = test system: CAKI-1 renal
# [24] = test system: IGROV1 ovarian
# [25] = test system: HCC-2998 colon
# [26] = test system: TK-10 renal
# [27] = test system: MALME-3M melanoma
# [28] = test system: SN12C renal
# [29] = test system: SK-MEL-28 melanoma
# [30] = test system: OVCAR-8 ovarian
# [31] = test system: SR leukemia
# [32] = test system: RXF 393 renal
# [33] = test system: MDA-MB-435
# [34] = test system: A498 renal
# [35] = test system: UACC-62 melanoma
# [36] = test system: OVCAR-3 ovarian
# [37] = test system: MOLT-4 leukemia
# [38] = test system: NCI-H460 lung
# [39] = test system: SW-620 colon
# [40] = test system: SK-OV-3 ovarian
# [41] = test system: SNB-19 CNS
# [42] = test system: SF-268 CNS
# [43] = test system: SK-MEL-2 melanoma
# [44] = test system: HCT-15 colon
# [45] = test system: NCI-H226 lung
# [46] = test system: A549 NSCLC
# [47] = test system: CCRF-CEM leukemia
# [48] = test system: SK-MEL-5 melanoma
# [49] = test system: NCI/ADR-RES ovarian
# [50] = test system: UO-31 renal
# [51] = test system: ACHN renal
compound,measurement,setting,value
CC(=O)Nc1ccc(NC(=O)Nc2cccc(-c3nc(-c4ccc(NC(=O)c5cccnc5)cc4Cl)no3)c2)cc1C(F)(F)F,GI50,[1],0.503 µM
same,TGI,[1],2.99 µM
same,GI50,[2],0.564 µM
same,TGI,[2],2.26 µM
same,GI50,[3],0.987 µM
same,TGI,[3],2.64 µM
same,GI50,[4],1.4 µM
same,TGI,[4],9.16 µM
same,GI50,[5],0.454 µM
same,TGI,[5],1.37 µM
same,GI50,[6],0.519 µM
same,TGI,[6],4.32 µM
same,GI50,[7],1.12 µM
same,TGI,[7],2.72 µM
same,GI50,[8],0.438 µM
same,TGI,[8],1.79 µM
same,GI50,[9],0.217 µM
same,TGI,[9],0.814 µM
same,GI50,[10],1.07 µM
same,TGI,[10],2.62 µM
same,GI50,[11],0.477 µM
same,TGI,[11],2.18 µM
same,GI50,[12],1.13 µM
same,TGI,[12],2.93 µM
same,GI50,[13],0.739 µM
same,TGI,[13],2.7 µM
same,GI50,[14],0.658 µM
same,TGI,[14],2.33 µM
same,GI50,[15],0.32 µM
same,TGI,[15],1.76 µM
same,GI50,[16],0.538 µM
same,TGI,[16],2.9 µM
same,GI50,[17],0.341 µM
same,TGI,[17],1.25 µM
same,GI50,[18],1.12 µM
same,TGI,[18],3.04 µM
same,GI50,[19],0.601 µM
same,TGI,[19],2.19 µM
same,GI50,[20],0.38 µM
same,TGI,[20],1.69 µM
same,GI50,[21],0.307 µM
same,TGI,[21],1.13 µM
same,GI50,[22],1.28 µM
same,TGI,[22],3.01 µM
same,GI50,[23],0.57 µM
same,TGI,[23],1.97 µM
same,GI50,[24],0.739 µM
same,TGI,[24],2.34 µM
same,GI50,[25],0.998 µM
same,TGI,[25],2.56 µM
same,GI50,[26],1.99 µM
same,TGI,[26],4.67 µM
same,GI50,[27],0.479 µM
same,TGI,[27],1.74 µM
same,GI50,[28],0.685 µM
same,TGI,[28],2.12 µM
same,GI50,[29],0.89 µM
same,TGI,[29],2.2 µM
same,GI50,[30],0.712 µM
same,TGI,[30],3.25 µM
same,GI50,[31],0.296 µM
same,TGI,[31],2.35 µM
same,GI50,[32],0.359 µM
same,TGI,[32],1.13 µM
same,GI50,[33],0.174 µM
same,TGI,[33],0.406 µM
same,GI50,[34],0.435 µM
same,TGI,[34],1.51 µM
same,GI50,[35],0.412 µM
same,TGI,[35],1.63 µM
same,GI50,[36],0.382 µM
same,TGI,[36],1.42 µM
same,GI50,[37],0.62 µM
same,TGI,[37],3 µM
same,GI50,[38],0.411 µM
same,TGI,[38],1.48 µM
same,GI50,[39],0.43 µM
same,TGI,[39],1.86 µM
same,GI50,[40],1.29 µM
same,TGI,[40],3.03 µM
same,GI50,[41],0.477 µM
same,TGI,[41],2.15 µM
same,GI50,[42],1.1 µM
same,TGI,[42],3.38 µM
same,GI50,[43],1.27 µM
same,TGI,[43],3.29 µM
same,GI50,[44],2.08 µM
same,TGI,[44],> 100 µM
same,GI50,[45],0.729 µM
same,TGI,[45],2.24 µM
same,GI50,[46],1.07 µM
same,TGI,[46],4.43 µM
same,GI50,[47],0.395 µM
same,TGI,[47],> 100 µM
same,GI50,[48],0.612 µM
same,TGI,[48],1.93 µM
same,GI50,[49],> 100 µM
same,TGI,[49],> 100 µM
same,GI50,[50],4.3 µM
same,TGI,[50],> 35.7 µM
same,GI50,[51],6.04 µM
same,TGI,[51],> 100 µM
